Assay results reported in the NIST ThermoML archive (doi:10.1021/je900283v).
Numbers after ± are expanded uncertainties.

Key:
[1] = Crystal; DTA
[2] = Molar enthalpy of transition or fusion; details: Crystal; DSC

Normal melting temperature [1]: 194.00 ± 1 °C | Molar enthalpy of transition or fusion [2]: 12.8 ± 0.335 kcal/mol
SMILES: CC[C@@]1(O)C(=O)OCc2c1cc1n(c2=O)Cc2cc3cc(O)ccc3nc2-1
